Measurements: patent US20130032547A1, “STABILIZATION AND DISINFECTION OF WASTES USING HIGH ENERGY E-BEAM AND CHEMICAL OXIDANTS” (priority 2011, published 2013)
Entries after “also recorded” stand apart in the source; their conditions may differ.

Legend:
[1] = test system: fecal coliforms (E. coli); assay: Re-growth of fecal coliforms (spiked E. coli) in treated biosolids (U.S. EPA method 1680, MPN); format: cell-based; conditions: for fecal coliforms, Plate count: Sep. 11, 2009
[2] = test system: estrogenic activity of 17-β-estradiol (E2); human estrogen receptor; assay: Estrogenic activity, YES assay (recombinant yeast); format: cell-based, Saccharomyces cereviciae; for estrogenic activity, E2 spiked (untreated) vs treated samples (in words): test concentration or dose not given here; for reduction of estrogenic activity (in words): test concentration or dose not given here
[3] = test system: somatic coliphages (phi X 174); format: cell-based, coliphage phi X 174; note: test concentration or dose not given here
[4] = test system: Salmonella Typhimurium; format: cell-based; for reduction (in words): test concentration or dose not given here
[5] = test system: Poliovirus Type 1; conditions: cited from earlier work
[6] = test system: Salmonella Typhimurium; assay: Re-growth of spiked Salmonella in treated biosolids (U.S. EPA method 1682, MPN); format: cell-based; conditions: for Salmonella, Plate count: Sep. 11, 2009
[7] = test system: Escherichia coli (ATCC #25922); format: cell-based; for reduction (in words): test concentration or dose not given here
[8] = Table 25, ClO2 + Irradiated, Oct. 5, 2009
[9] = Table 25, ClO2 + Irradiated, Sep. 18, 2009
[10] = Table 25, ClO2 + Irradiated, Sep. 25, 2009
[11] = Table 26, ClO2 + Irradiated, Oct. 5, 2009
[12] = Table 26, ClO2 + Irradiated, Sep. 18, 2009
[13] = Table 26, ClO2 + Irradiated, Sep. 25, 2009
[14] = Table 23, ClO2 + Irradiated, Oct. 5, 2009
[15] = Table 23, ClO2 + Irradiated, Sep. 18, 2009
[16] = Table 23, ClO2 + Irradiated, Sep. 25, 2009
[17] = Table 24, ClO2 + Irradiated, Oct. 5, 2009
[18] = Table 24, ClO2 + Irradiated, Sep. 18, 2009
[19] = Table 24, ClO2 + Irradiated, Sep. 25, 2009

Compound: [O][Cl+][O-] [Chlorine Dioxide, chlorine dioxide]
- re-growth of fecal coliforms (in words) [1]: no re-growth
- fecal coliforms, Plate count ([1]; Table 25 (aerobic sludge inferred), ClO2): 4.27E+07
- fecal coliforms MPN/4 g dry wt [1, 8]: <0.1803 MPN/4 g dry wt
- fecal coliforms MPN/g dry wt [1, 8]: <0.1803 MPN/g dry wt
- fecal coliforms, Plate count ([1]; Table 25, ClO2 + Irradiated): 0.00E+00
- fecal coliforms MPN/4 g dry wt [1, 9]: <0.1803 MPN/4 g dry wt
- fecal coliforms MPN/g dry wt [1, 9]: <0.1803 MPN/g dry wt
- fecal coliforms MPN/4 g dry wt [1, 10]: <0.1803 MPN/4 g dry wt
- fecal coliforms MPN/g dry wt [1, 10]: <0.1803 MPN/g dry wt
- fecal coliforms MPN/4 g dry wt ([1]; Table 25, ClO2, Oct. 5, 2009): 1.37E+03 MPN/4 g dry wt
- fecal coliforms MPN/g dry wt ([1]; Table 25, ClO2, Oct. 5, 2009): 3.44E+02 MPN/g dry wt
- fecal coliforms MPN/4 g dry wt ([1]; Table 25, ClO2, Sep. 18, 2009): 8.49E+05 MPN/4 g dry wt
- fecal coliforms MPN/g dry wt ([1]; Table 25, ClO2, Sep. 18, 2009): 2.12E+05 MPN/g dry wt
- fecal coliforms MPN/4 g dry wt ([1]; Table 25, ClO2, Sep. 25, 2009): 6.47E+03 MPN/4 g dry wt
- fecal coliforms MPN/g dry wt ([1]; Table 25, ClO2, Sep. 25, 2009): 1.62E+03 MPN/g dry wt
- fecal coliforms, Plate count ([1]; Table 26 (anaerobic sludge inferred), ClO2): 7.26E+06
- fecal coliforms MPN/4 g dry wt [1, 11]: <0.1803 MPN/4 g dry wt
- fecal coliforms MPN/g dry wt [1, 11]: <0.1803 MPN/g dry wt
- fecal coliforms, Plate count ([1]; Table 26, ClO2 + Irradiated): 2.14E+03
- fecal coliforms MPN/4 g dry wt [1, 12]: 1.01E+03 MPN/4 g dry wt
- fecal coliforms MPN/g dry wt [1, 12]: 2.53E+02 MPN/g dry wt
- fecal coliforms MPN/4 g dry wt [1, 13]: <0.1803 MPN/4 g dry wt
- fecal coliforms MPN/g dry wt [1, 13]: <0.1803 MPN/g dry wt
- fecal coliforms MPN/4 g dry wt ([1]; Table 26, ClO2, Oct. 5, 2009): <0.1803 MPN/4 g dry wt
- fecal coliforms MPN/g dry wt ([1]; Table 26, ClO2, Oct. 5, 2009): <0.1803 MPN/g dry wt
- fecal coliforms MPN/4 g dry wt ([1]; Table 26, ClO2, Sep. 18, 2009): 1.02E+05 MPN/4 g dry wt
- fecal coliforms MPN/g dry wt ([1]; Table 26, ClO2, Sep. 18, 2009): 2.54E+04 MPN/g dry wt
- fecal coliforms MPN/4 g dry wt ([1]; Table 26, ClO2, Sep. 25, 2009): 1.67E+03 MPN/4 g dry wt
- fecal coliforms MPN/g dry wt ([1]; Table 26, ClO2, Sep. 25, 2009): 4.17E+02 MPN/g dry wt
- estrogenic activity, E2 spiked (untreated) vs treated samples (in words) [2]: no significant difference
- reduction of estrogenic activity (in words) [2]: does not reduce
- inactivation (in words) [3]: effectively eliminated; also recorded: significant reductions
- log reduction [4]: 3 log
- reduction (in words) [4]: did not show any significant reduction
- time to inactivate clumped poliovirus I aggregates compared to single state viruses [5]: 2.7 times longer
- re-growth of Salmonella spp. (in words) [6]: no re-growth
- Salmonella, Plate count ([6]; Table 23 (% total solid 0.0131, aerobic inferred), ClO2): 2.98E+08
- Salmonella MPN/4 g (dry weight) [6, 14]: 2.20E+01 MPN/4 g (dry weight)
- Salmonella MPN/4 g (dry weight) based on 2 ml, 1 ml, 0.1 ml [6, 14]: 2.2E+00 MPN/4 g (dry weight)
- Salmonella MPN/ml (wet weight) [6, 14]: 0.0072 MPN/ml (wet weight)
- Salmonella, Plate count ([6]; Table 23, ClO2 + Irradiated): 4.43E+05
- Salmonella MPN/4 g (dry weight) [6, 15]: 1.91E+02 MPN/4 g (dry weight)
- Salmonella MPN/4 g (dry weight) based on 2 ml, 1 ml, 0.1 ml [6, 15]: 1.9E+01 MPN/4 g (dry weight)
- Salmonella MPN/ml (wet weight) [6, 15]: 0.0626 MPN/ml (wet weight)
- Salmonella MPN/4 g (dry weight) [6, 16]: 7.15E+01 MPN/4 g (dry weight)
- Salmonella MPN/4 g (dry weight) based on 2 ml, 1 ml, 0.1 ml [6, 16]: 7.1E+00 MPN/4 g (dry weight)
- Salmonella MPN/ml (wet weight) [6, 16]: 0.0234 MPN/ml (wet weight)
- Salmonella MPN/4 g (dry weight) ([6]; Table 23, ClO2, Oct. 5, 2009): 7.79E+01 MPN/4 g (dry weight)
- Salmonella MPN/4 g (dry weight) based on 2 ml, 1 ml, 0.1 ml ([6]; Table 23, ClO2, Oct. 5, 2009): 7.8E+00 MPN/4 g (dry weight)
- Salmonella MPN/ml (wet weight) ([6]; Table 23, ClO2, Oct. 5, 2009): 0.0255 MPN/ml (wet weight)
- Salmonella MPN/4 g (dry weight) ([6]; Table 23, ClO2, Sep. 18, 2009): 4.91E+03 MPN/4 g (dry weight)
- Salmonella MPN/4 g (dry weight) based on 2 ml, 1 ml, 0.1 ml ([6]; Table 23, ClO2, Sep. 18, 2009): 4.9E+02 MPN/4 g (dry weight)
- Salmonella MPN/ml (wet weight) ([6]; Table 23, ClO2, Sep. 18, 2009): 1.6090 MPN/ml (wet weight)
- Salmonella MPN/4 g (dry weight) ([6]; Table 23, ClO2, Sep. 25, 2009): 3.51E+02 MPN/4 g (dry weight)
- Salmonella MPN/4 g (dry weight) based on 2 ml, 1 ml, 0.1 ml ([6]; Table 23, ClO2, Sep. 25, 2009): 3.5E+01 MPN/4 g (dry weight)
- Salmonella MPN/ml (wet weight) ([6]; Table 23, ClO2, Sep. 25, 2009): 0.1151 MPN/ml (wet weight)
- Salmonella, Plate count ([6]; Table 24 (% total solid 0.0312, anaerobic inferred), ClO2): 3.03E+06
- Salmonella MPN/4 g (dry weight) [6, 17]: 4.41E+01 MPN/4 g (dry weight)
- Salmonella MPN/4 g (dry weight) based on 2 ml, 1 ml, 0.1 ml [6, 17]: 4.4E+00 MPN/4 g (dry weight)
- Salmonella MPN/ml (wet weight) [6, 17]: 0.0344 MPN/ml (wet weight)
- Salmonella, Plate count ([6]; Table 24, ClO2 + Irradiated): 3.85E+03
- Salmonella MPN/4 g (dry weight) [6, 18]: 6.95E+02 MPN/4 g (dry weight)
- Salmonella MPN/4 g (dry weight) based on 2 ml, 1 ml, 0.1 ml [6, 18]: 7.0E+01 MPN/4 g (dry weight)
- Salmonella MPN/ml (wet weight) [6, 18]: 0.5422 MPN/ml (wet weight)
- Salmonella MPN/4 g (dry weight) [6, 19]: 8.03E+01 MPN/4 g (dry weight)
- Salmonella MPN/4 g (dry weight) based on 2 ml, 1 ml, 0.1 ml [6, 19]: 8.0E+00 MPN/4 g (dry weight)
- Salmonella MPN/ml (wet weight) [6, 19]: 0.0626 MPN/ml (wet weight)
- Salmonella MPN/4 g (dry weight) ([6]; Table 24, ClO2, Oct. 5, 2009): 8.03E+01 MPN/4 g (dry weight)
- Salmonella MPN/4 g (dry weight) based on 2 ml, 1 ml, 0.1 ml ([6]; Table 24, ClO2, Oct. 5, 2009): 8.0E+00 MPN/4 g (dry weight)
- Salmonella MPN/ml (wet weight) ([6]; Table 24, ClO2, Oct. 5, 2009): 0.0626 MPN/ml (wet weight)
- Salmonella MPN/4 g (dry weight) ([6]; Table 24, ClO2, Sep. 18, 2009): 2.06E+03 MPN/4 g (dry weight)
- Salmonella MPN/4 g (dry weight) based on 2 ml, 1 ml, 0.1 ml ([6]; Table 24, ClO2, Sep. 18, 2009): 2.1E+02 MPN/4 g (dry weight)
- Salmonella MPN/ml (wet weight) ([6]; Table 24, ClO2, Sep. 18, 2009): 1.6090 MPN/ml (wet weight)
- Salmonella MPN/4 g (dry weight) ([6]; Table 24, ClO2, Sep. 25, 2009): 4.46E+02 MPN/4 g (dry weight)
- Salmonella MPN/4 g (dry weight) based on 2 ml, 1 ml, 0.1 ml ([6]; Table 24, ClO2, Sep. 25, 2009): 4.5E+01 MPN/4 g (dry weight)
- Salmonella MPN/ml (wet weight) ([6]; Table 24, ClO2, Sep. 25, 2009): 0.3475 MPN/ml (wet weight)
- log reduction [7]: 4 to 5 log
- log reduction (complete reduction) [7]: approximately 8 log
- reduction (in words) [7]: did not exhibit any reduction

Compound: C[C@]12CC[C@@H]3c4ccc(O)cc4CC[C@H]3[C@@H]1CC[C@@H]2O [E2, 17-β-estradiol, reference compound]
- upper limit of the dynamic range of the YES assay (saturation) ([2]; E2 standards in DMSO): 60 nM
